{"source": "patent US5214165A", "about": "“Compounds useful as intermediates in the synthesis of shikimic acid derivatives” (Imperial Chemical Industries PLC, priority 1989, dated 1993)", "key": {"E. coli K12 [1]": {"system": "E. coli K12", "experiment": "interaction with sulphamethoxazole, chequerboard titration", "assay_type": "cell-based", "method": "(§1) 3) The interaction of 6-fluoroshikimate (racemic mixture) with a representative sulphonamide (sulphamethoxazole) was tested using both a disc approximation method and chequerboard titration."}, "E. coli K12 [2]": {"system": "E. coli K12", "experiment": "interaction with sulphamethoxazole, disc approximation method", "assay_type": "cell-based", "method": "as §1"}, "Klebsiella pneumoniae [3]": {"system": "Klebsiella pneumoniae", "experiment": "interaction with sulphamethoxazole, disc approximation method", "assay_type": "cell-based", "method": "as §1"}, "Enterobacter cloacae [4]": {"system": "Enterobacter cloacae", "experiment": "interaction with sulphamethoxazole, disc approximation method", "assay_type": "cell-based", "method": "as §1"}, "carrot cells [5]": {"system": "carrot cells", "experiment": "standard carrot cell test for herbicidal activity", "assay_type": "cell-based", "details": "carrot cells in liquid culture, shake flasks, 25° C.", "method": "5) In a standard test for herbicidal activity carrot cells were grown in shake flasks at 25° C. in liquid culture (Murashige and Skoog media with 0.2 mg/liter of kinetin and 0.1 mg/liter of 2.4 dichlorophenoxyacetic acid). The growth of cells was measured and an IC50 value obtained for compounds which were added in water."}, "E. coli N99 [6]": {"system": "E. coli N99", "experiment": "disc diffusion antibacterial activity, zones of inhibition", "assay_type": "cell-based", "details": "Escherichia coli; for zone of inhibition at 1.5 µg/disc: 1.5 μg applied on to disc", "method": "(§2) 1) Antimicrobial activity was assessed in vitro using a disc diffusion method and a method wherein the test compound was in agar. Both methods employed the use of Davis and Mingioli (J. Bact (1950) 60 17-28) glucose agar.\ni) The disc diffusion method used an overnight culture of E. coli N99 in Davis and Mingioli broth as an ioculum for the agar (e.g. 500 μl/100 ml agar). Test compounds were dissolved in distilled water and placed on to a 6 mm diameter disc which had just been applied to the agar surface. The plates were then incubated for 16 hours at 37° C. Using this method the following zones of inhibition were observed."}, "E. coli N99 [7]": {"system": "E. coli N99", "experiment": "mouse protection test", "assay_type": "in vivo", "design": "unit not given beside the values", "details": "mice", "method": "4) The in vivo efficacy of the fluoroshikimate was determined by the use of a mouse protection test. Male mice (18-20 g) were inoculated intraperitoneally with ten times the previously determined LD50 for E. coli N99 in 0.4 ml of hog gastric mucin (12%). Immediately after infection the mice were dosed with 0.2 ml of test compound either subcutaneously, per os or intraperitoneally. Based on the number of survivors at day 4 post infection, PD50 values were calculated by LOGIT analysis."}, "E. coli 341094": {"system": "E. coli 341094", "experiment": "mouse protection test", "assay_type": "in vivo", "design": "unit not given beside the values", "details": "mice"}, "S. dublin 369001": {"system": "S. dublin 369001", "experiment": "mouse protection test", "assay_type": "in vivo", "design": "unit not given beside the values", "details": "mice"}, "E. coli. N99": {"system": "E. coli. N99", "experiment": "test compound in agar method, MIC", "assay_type": "cell-based", "details": "Escherichia coli, glucose agar, 16 hours at 37° C., read-out: MIC (minimum inhibitory concentration)", "method": "as §2\n(§3) ii) The \"test compound in agar\" method studied 6-α-fluoroshikimate at various final concentration in the agar (i.e. between 0 and 500 μg/ml) to obtain MIC (minimum inhibitory concentration) values for nine different bacterial cultures. Cultures were grown in Davis and Mingioli broth for 16 hours at 37° C. and diluted in fresh Davis and Mingioli broth to give 10^6 cells/ml. 1 μl volume of each culture was applied to the surface of each agar plate containing 6-α-fluoroshikimate and the plates were then incubated for 16 hours at 37° C. before each inoculation spot was visually assessed for growth. Using this technique the following results were observed: […]"}, "Bacillus subtilis": {"system": "Bacillus subtilis", "experiment": "test compound in agar method, MIC", "assay_type": "cell-based", "details": "glucose agar, 16 hours at 37° C., read-out: MIC (minimum inhibitory concentration)", "method": "as §2, §3"}, "Klebsiella pneumoniae [8]": {"system": "Klebsiella pneumoniae", "experiment": "test compound in agar method, MIC", "assay_type": "cell-based", "details": "glucose agar, 16 hours at 37° C., read-out: MIC (minimum inhibitory concentration)", "method": "as §2, §3"}, "Enterobacter cloacae [9]": {"system": "Enterobacter cloacae", "experiment": "test compound in agar method, MIC", "assay_type": "cell-based", "details": "glucose agar, 16 hours at 37° C., read-out: MIC (minimum inhibitory concentration)", "method": "as §2, §3"}, "E. coli. B": {"system": "E. coli. B", "experiment": "test compound in agar method, MIC", "assay_type": "cell-based", "details": "Escherichia coli, glucose agar, 16 hours at 37° C., read-out: MIC (minimum inhibitory concentration)", "method": "as §2, §3"}, "Bacillus licheniformis": {"system": "Bacillus licheniformis", "experiment": "test compound in agar method, MIC", "assay_type": "cell-based", "details": "glucose agar, 16 hours at 37° C., read-out: MIC (minimum inhibitory concentration)", "method": "as §2, §3"}, "Serratia marcescens": {"system": "Serratia marcescens", "experiment": "test compound in agar method, MIC", "assay_type": "cell-based", "details": "glucose agar, 16 hours at 37° C., read-out: MIC (minimum inhibitory concentration)", "method": "as §2, §3"}, "[10]": {"system": "Pseudomonas aeruginosa 799/wt", "experiment": "test compound in agar method, MIC", "assay_type": "cell-based", "details": "glucose agar, 16 hours at 37° C., read-out: MIC (minimum inhibitory concentration)", "method": "as §2, §3"}, "[11]": {"system": "Klebsiella pneumoniae ATCC 25304", "experiment": "test compound in agar method, MIC", "assay_type": "cell-based", "details": "ATCC25304, glucose agar, 16 hours at 37° C., read-out: MIC (minimum inhibitory concentration)", "method": "as §2, §3"}, "S. aureus 601055": {"system": "S. aureus 601055", "experiment": "mouse protection test", "assay_type": "in vivo", "design": "unit not given beside the values", "details": "mice"}, "E. coli N99 [12]": {"system": "E. coli N99", "experiment": "reversal studies of growth inhibition by 6α-fluoroshikimate", "assay_type": "cell-based", "details": "in presence of 6α-fluoroshikimate; for Effect on the E. coli N99 inhibited growth: agent (each) at 100.0 μg/ml final well concentration, result in words", "method": "2) Reversal studies were performed by adding agents to an E. coli N99 (Davis and Mingioli broth) 10^6 cells/ml. suspension in the presence of 6α-fluoroshikimate and the bacterial growth assessed by the use of a spectrophotometer (Absorbance 540 nm)\nInhibition of bacterial growth was reversed by paraaminobenzoic acid (PABP) but degrees of counter reversion were seen after the addition of aromatic amino acid types. Using this technique the following results were observed: […]"}, "carrot cells [13]": {"system": "carrot cells", "details": "well-known herbicide, in words; cited from earlier work"}, "[14]": {"details": "16 hours at 37° C. (α: hazy zone), read-out: mm diameter zones of inhibition vs. E. coli N99"}}, "note": "Like-named read-outs stand apart in the source and are kept apart here."}
{"smiles": "O=C(O)C1=CC(O)C(O)C(O)C1F", "note": "(racemic) [6-fluoroshikimate (racemic mixture)]", "values": [{"measurement": "synergistic interaction with sulphamethoxazole", "setting": "E. coli K12 [1]", "value": "synergistic interaction was confirmed"}, {"measurement": "synergistic interaction with sulphamethoxazole", "setting": "E. coli K12 [2]", "value": "synergistic interaction"}, {"measurement": "synergistic interaction with sulphamethoxazole", "setting": "Klebsiella pneumoniae [3]", "value": "synergistic interaction"}, {"measurement": "synergistic interaction with sulphamethoxazole", "setting": "Enterobacter cloacae [4]", "value": "synergistic interaction"}, {"measurement": "IC50 (growth of carrot cells)", "setting": "carrot cells [5]", "value": 1.5, "unit": "μ/ml"}]}
{"smiles": "O=C(O)C1=C[C@@H](O)[C@@H](O)[C@H](O)[C@H]1F", "note": "[6-α-fluoroshikimate, (3R,4R,5S,6S)6-α-Fluoroshikimic acid]", "values": [{"measurement": "zone of inhibition at 0.025 µg/disc", "setting": "E. coli N99 [6]; 0.025 μg applied on to disc, 16 hours at 37° C., read-out: mm diameter zones of inhibition vs. E. coli N99", "value": 0, "unit": "mm"}, {"measurement": "zone of inhibition at 0.05 µg/disc", "setting": "E. coli N99 [6]; 0.05 μg applied on to disc, 16 hours at 37° C., hazy, read-out: mm diameter zones of inhibition vs. E. coli N99", "value": 10, "unit": "mm"}, {"measurement": "zone of inhibition at 1.5 µg/disc", "setting": "E. coli N99 [6]; [14]", "value": 29, "unit": "mm"}, {"measurement": "zone of inhibition at 1.5 µg/disc", "setting": "E. coli N99 [6]; 16 hours at 37° C., inner clear, read-out: mm diameter zones of inhibition vs. E. coli N99, inner clear zone", "value": 23, "unit": "mm"}, {"measurement": "PD50 (day 4)", "setting": "E. coli N99 [7]; intraperitoneal", "value": "> 10"}, {"measurement": "PD50 (day 4)", "setting": "E. coli N99 [7]; per os", "value": 8.6}, {"measurement": "PD50 (day 4)", "setting": "E. coli N99 [7]; subcutaneous", "value": 4.6}, {"measurement": "PD50 (day 4)", "setting": "E. coli 341094; per os", "value": 13.4}, {"measurement": "PD50 (day 4)", "setting": "E. coli 341094; subcutaneous", "value": 23.2}, {"measurement": "PD50 (day 4)", "setting": "S. dublin 369001; per os", "value": 50}, {"measurement": "PD50 (day 4)", "setting": "S. dublin 369001; subcutaneous", "value": 20}, {"measurement": "MIC", "setting": "E. coli. N99", "value": 0.1, "unit": "µg/mL"}, {"measurement": "MIC", "setting": "Bacillus subtilis", "value": 50, "unit": "µg/mL"}, {"measurement": "MIC", "setting": "Klebsiella pneumoniae [8]", "value": 5, "unit": "µg/mL"}, {"measurement": "MIC", "setting": "Enterobacter cloacae [9]", "value": 50, "unit": "µg/mL"}, {"measurement": "MIC", "setting": "E. coli. B", "value": 1, "unit": "µg/mL"}, {"measurement": "MIC", "setting": "Bacillus licheniformis", "value": "> 500", "unit": "µg/mL"}, {"measurement": "MIC", "setting": "Serratia marcescens", "value": "> 500", "unit": "µg/mL"}, {"measurement": "MIC", "setting": "[10]", "value": "> 500", "unit": "µg/mL"}, {"measurement": "MIC", "setting": "[11]", "value": 1, "unit": "µg/mL"}, {"measurement": "PD50 (day 4)", "setting": "S. aureus 601055; per os", "value": 20}, {"measurement": "PD50 (day 4)", "setting": "S. aureus 601055; subcutaneous", "value": 20}]}
{"smiles": "O=C(O)C1=C[C@@H](O)[C@@H](O)[C@H](O)[C@@H]1F", "note": "[6-β-fluoroshikimate, (3R,4R,5S,6R)6-β-Fluoroshikimic acid]", "values": [{"measurement": "zone of inhibition at 1.5 µg/disc", "setting": "E. coli N99 [6]; [14]", "value": 0, "unit": "mm"}, {"measurement": "zone of inhibition at 3 µg/disc", "setting": "E. coli N99 [6]; 3.0 μg applied on to disc, 16 hours at 37° C., very hazy, read-out: mm diameter zones of inhibition vs. E. coli N99", "value": 13, "unit": "mm"}, {"measurement": "zone of inhibition at 30 µg/disc", "setting": "E. coli N99 [6]; 30.0 μg applied on to disc, 16 hours at 37° C., very hazy, read-out: mm diameter zones of inhibition vs. E. coli N99", "value": 26, "unit": "mm"}]}
{"smiles": "N[C@@H](Cc1ccccc1)C(=O)O", "note": "[L-Phenyl alanine]", "values": [{"measurement": "Effect on the E. coli N99 inhibited growth", "setting": "E. coli N99 [12]", "value": "No reversion"}]}
{"smiles": "N[C@@H](Cc1c[nH]c2ccccc12)C(=O)O", "note": "[L-tryptophan]", "values": [{"measurement": "Effect on the E. coli N99 inhibited growth", "setting": "E. coli N99 [12]", "value": "No reversion"}]}
{"smiles": "N[C@@H](Cc1ccc(O)cc1)C(=O)O", "note": "[L-tyrosine]", "values": [{"measurement": "Effect on the E. coli N99 inhibited growth", "setting": "E. coli N99 [12]", "value": "No reversion"}]}
{"smiles": "Nc1ccc(C(=O)O)cc1", "note": "[PABA, paraaminobenzoic acid]", "values": [{"measurement": "Inhibition of bacterial growth reversed", "setting": "E. coli N99 [12]; Absorbance 540 nm", "value": "reversed"}]}
{"smiles": "O=C(O)CNCP(=O)(O)O", "note": "[glyphosate]", "values": [{"measurement": "activity in the standard carrot cell test", "setting": "carrot cells [13]", "value": "active"}]}
